The text below walks through data of US5912258A, “Thiadiazoleamide derivative and anti-ulcer drug” (Shiseido Co., Ltd., priority 1998, dated 1999).

Data set [1] concerns isolated gastric fundic gland. Nature of the data set: CAP: Acid Secretion Inhibition Test in vitro ([^14 C]-aminopyrine uptake). Format: cell-based, male Japanese White rabbit. The conditions noted are these: rabbit isolated gastric fundic gland, 10^-5 M, histamine 10^-5 M; for inhibition at 10 µM: Oryctolagus cuniculus, read-out: CAP: Acid secretion inhibitory rate. As for the experimental part: CAP: Acid Secretion Inhibition Test in vitro (i) Meaning The acid secretion inhibitory activity in a cell level is studied. It can also be used for studying the mechanism of the effect. (ii) Method (ii)-(a) Preparation of isolated gastric gland suspension First, an isolated gastric fundic gland sample was prepared. Namely, a male Japanese White rabbit (2.5 to 3 kg) was anesthetized to death with Nembutal™ and then the abdomen was incised. Immediately thereafter, the stomach was removed and, after its pyloric and cardiac antrum were severed, incised along its greater curvature into two sheets. The gastric contents adhering to the mucosal surface was washed out with ice-cooled PBS (-) and then carefully washed therein. The gastric wall was spread on a cork board with its mucosal surface facing up and the feed and mucus thereon were completely removed with sterile gauze. The mucosa was separated therefrom by a spatula and then collected in ice-cooled PBS (-). After being washed twice with PBS (-), the mucosa was minced into 2-3 mm^3 pieces by scissors. These pieces were further washed twice with a nutrient solution. The nutrient solution comprises 132.4 mM of NaCl, 5.4 mM of KCl, 5 mM of Na2 HPO4 ·12H2 O, 1 mM of NaH2 PO4 ·2H2 O, 1.2 mM of MgSO4, 1 mM of CaCl2, 25 mM of HEPES, 2 mg/ml of glucose, and 1 mg/ml of BSA. Into 70 ml of the nutrient solution containing 1 mg/ml of collagenase, minced mucosal pieces were dispersed and intensely stirred in a conical flask with a stirrer at 37° C. for 40 to 60 minutes. […] The nutrient solution was added to the reaction solution so as to attain the total amount of about 200 ml. After being filtered through a mesh, the suspension was divisionally introduced into 50 ml centrifuge tubes and left for 15 minutes such that gastric fundic gland was deposited. The supernatant was repeatedly removed by an aspirator, dispersed in the nutrient solution, and then left such that the gastric fundic gland was washed three times. At this time, without using a pipette, the suspension was alternately introduced into two centrifuge tubes so as to effect dispersion. The number of cells was counted under microscope and adjusted to 1.6×10^6 cells/ml. (ii)-(b) [^14 C]-aminopyrine uptake test Then [^14 C]-aminopyrine uptake test was performed. After an Eppendorf tube was weighed, 10 μl (final concentration: 10^-5 M) of histamine dissolved in the above-mentioned nutrient solution, 10 μl (final concentration: 10 ^-5 M) of the test compound dissolved in DMSO, and 10 μl (final concentration: 0.05 μCi/ml) of [^14 C]-aminopyrine diluted with the nutrient solution were introduced therein and then 970 μl of the isolated gastric fundic gland suspension prepared above were added thereto. Subsequently, this mixture was shaken at 37° C. for 40 minutes at 125 cycles/minute. After being centrifuged for 30 minutes 200 μl of its supernatant was collected into a mini-vial, while the rest was removed by an aspirator. The gland pellet was completely dried as the tube with its lid being opened was kept for one night in a drying oven at 80° C. and then the weight was determined at room temperature. Then 100 μl of 1N KOH was added thereto an the tube with its lid being closed was treated at 60° C. for 1 to 2 hours so as to dissolve the pellet. Then, the contents thereof were transferred to a mini-vial. Into the mini-vial containing the supernatant or gland pellet, 4 ml of Atomlite™ was added and then the radioactivity was measured by a liquid scintillation counter. Here, after the radioactivity of the gland pellet was corrected by using a sample in which 20 mM of NaSCN was added so as to cancel the hydrogen ion concentration gradient, the integration ratio of aminopyrine specifically trapped by the gland pellet was calculated. This experiment was performed in duplicate. (ii)-(c) Calculation of the accumulation rate of aminopyrine Here, its principle will be briefly explained. […]

For data set [2], the system named is gastric corpus mucosa cells. Nature of the data set: MTT: Cell Damaging and Protecting Effect Test. Format: cell-based, male Japanese White rabbit. The following applies: rabbit gastric mucosa cells, 10^-4 M, 4 hours; smaller value is better; 100 µM. The text has this:
(§1) MTT: Cell Damaging and Protecting Effect Test
(§2) It is confirmed that there is no toxicity in cell level. Those having toxicity in cell level are inappropriate as an anti-ulcer drug.
(§3) A male Japanese White rabbit (2.5 to 3 kg) was anesthetized to death by Nembutal™ and, immediately thereafter, its stomach was removed. The greater curvature of the stomach was incised so as to remove the stomach contents therefrom. After the mucosal surface was washed with HBSS (Hank's Balanced Salt Solution), the stomach in ice-cooled HBSS was transferred to a laboratory. Then, after the pyloric antrum was removed, the gastric corpus mucosa was separated by a spatula and then minced into 2 to 3 mm pieces in BME (Basal Medium Eagle). Thereafter, these pieces were shaken at 120 to 130 cycles/minute for 15 minutes at 37° C. in BME 60 ml containing 280 U/ml of dispase and 30 to 50 U/mil of collagenase. Here, the concentration of collagenase was appropriately changed for each lot in view of the state of cells. The pieces were washed twice with EBSS (Earle's Balanced Salt Solution) containing 1 mM of EDTA and then shaken in MEM (Minimum Essential Medium) containing 1 mM of EDTA at 37° C. for 5 minutes. Subsequently, they were shaken in the dispase and collagenase having the same concentrations as those mentioned above for 15 minutes so as to remove the supernatant and then further shaken at 37° C. for 50 to 60 minutes at 120 to 130 cycles/minute. Then, after being washed twice with HBSS, Ham F12 containing 2% of Ultrocer G™ was used to attain the concentration of 1×10^6 cells/ml. Thus formed suspension was dispensed in each well of a 96-well plate by 200 μl. The plate was incubated in the atmosphere composed of 5% CO2 and 95% air at 37° C. for three days so as to attain a confluent state and then subjected to MTT assay.
(§4) The sample compound was dissolved in DMSO so as to attain a concentration of 10^-2 M and then diluted with HBSS containing 2% of Ultrocer G™ so as to attain a final concentration of 10^-4 M. To each group, which 8 wells were used for, 10 μl of MTT reagent was added immediately after 100 μl of the medium in each well was exchanged for same volume of the resulting solution of the sample compound. After being incubated in an atmosphere composed of 5% CO2 and 95% air at 37° C. for 4 hours, thus formed solution was centrifuged and then its supernatant was discarded. Subsequently, 100 μl of 100% ethanol was added to the residue so as to dissolve MTT formazan. Then, the absorbance (OD: 570 to 630) was measured by a microplate reader. This method utilizes a phenomenon in which MTT is changed to MTT formazan only by mitochondria of living cells so as to change color.
(§5) The cell damaging or cell protecting effect of the sample compound at the final concentration of 10^-4 M was expressed as cell damaging rate (%) as follows:
(§6) cell damaging rate (%)={1-(absorbance in sample group/absorbance in control group)}×100
(§7) Accordingly, the smaller value is better in the cell damaging rate.

A further data set relates to stress ulcer formation. The data set is described as follows: WIS: Restraint and Water Immersion Stress-Induced Ulcer Inhibition Test. Type of data set: in vivo, Male Crj:SD or Slc:SD rats. The conditions noted are these: for WIS: ulcer formation inhibitory rate: rat, 100 mg/kg orally, 7 hours water immersion stress. As for the experimental part: WIS: Restraint and Water Immersion Stress-Induced Ulcer Inhibition Test (i) Meaning The degree of inhibition of the stress ulcer formation is tested. (ii) Method Male Crj:SD or Slc:SD rats (6 to 7-weeek-old) were fasted overnight, but allowed free access to water. Each group has 5 to 8 of these rats. The sample compound was dissolved or suspended in an aqueous solution of 0.3% sodium carboxymethylcellulose or 0.05% Tween 80 and then was orally administered (100 mg/10 ml/kg). To a control group, the vehicle was administered. 10 minutes later, the rats were placed in a stress cage and immersed to the level of xiphoid process in a water bath (21° C.) for 7 hours. At the end of the stress, the rats were sacrificed by inhalation of ether or carbon dioxide. Then, the stomach of each was removed, inflated by injecting 10 ml of 5% formalin neutral buffer solution, and immersed in 1% formalin neutral buffer solution for 30 minutes or more to be fixed. The stomach was incised along the greater curvature and then the length of each erosion in the glandular portion was determined under dissecting microscope. The sum of the length of erosions per stomach was defined as ulcer index (UI). (iii) Judgment Standard […]

Data set [3] in a line: MTT: Cell Damaging and Protecting Effect Test. Type of data set: cell-based, male Japanese White rabbit. The following applies: rabbit, gastric mucosa cells, 10^-4 M, smaller value is better, read-out: MTT: cell damaging rate.
Description: as §1, §2, §3, §4, §5, §6, §7

Consider `CC(C)c1ccc(C(=O)Nc2nnc(SCCN(C(C)C)C(C)C)s2)cc1.Cl` [Example 3, 2-(4-isopropylbenzoyl)amino-5-diisopropylaminoethylthio-1,3,4-thiadiazole hydrochloride], for which the “CAP: Acid secretion inhibitory rate” value in data set [1] turned out to be 104%. The “MTT: cell damaging rate” value in data set [2] is given as -75%. Also, in the data set with stress ulcer formation, the “WIS: ulcer formation inhibitory rate” value turned out to be 96%.

Take `CC(C)N(CCSc1nnc(NC(=O)c2ccc(C(C)(C)C)cc2)s1)C(C)C` [Example 5, 2-(4-tert-butylbenzoyl)amino-5-diisopropylaminoethylthio-1,3,4-thiadiazole]: in data set [1], the inhibition at 10 µM worked out at 100%. Moreover, the cytotoxicity at 4 h, 100 µM in data set [3] was -19%. The “WIS: ulcer formation inhibitory rate” value with stress ulcer formation was determined as 63%.

For `CCN(CC)CCSc1nnc(NC(=O)c2cc(C(C)(C)C)cc(C(C)(C)C)c2)s1` [Example 6, 2-(3,5-di-tert-butylbenzoyl)amino-5-diethylaminoethylthio-1,3,4-thiadiazol], the inhibition at 10 µM in data set [1] amounted to 100%. Moreover, the cytotoxicity at 4 h, 100 µM in data set [3] amounted to 58%. Besides, in the data set with stress ulcer formation (WIS), the “anti-ulcer effect (in words)” value is listed as “sufficient effects”. The “WIS: ulcer formation inhibitory rate” value in the data set on stress ulcer formation is listed as 81%.

On to `CCN(CC)CCSc1nnc(NC(=O)c2ccc(OC(C)C)cc2)s1` [Example 7, 2-(4-isopropyloxybenzoyl)amino-5-diethylaminoethylthio-1,3,4-thiadiazole], for which the inhibition at 10 µM in data set [1] was 97%. In addition, the cytotoxicity at 4 h, 100 µM in data set [3] came to 46%. In addition, in the data set on stress ulcer formation, the “WIS: ulcer formation inhibitory rate” value turned out to be 76%.

`CCN(CC)CCSc1nnc(NC(=O)c2ccc(OC(C)(C)C)cc2)s1` [Example 8, 2-(4-tert-butoxybenzoyl)amino-5-diethylaminoethylthio-1,3,4-thiadiazole]: in data set [1], the inhibition at 10 µM worked out at 99%. For the same compound, the cytotoxicity at 4 h, 100 µM in data set [3] is -11%. Also, the “WIS: ulcer formation inhibitory rate” value with stress ulcer formation was found to be 66%.

Take `CCN(CC)CCSc1nnc(NC(=O)c2ccc(NC(C)(C)C)cc2)s1` [Example 9, 2-(4-tert-butyaminobenzoyl)amino-5-diethylaminoethylthio-1,3,4-thiadiazole]: in data set [1], the inhibition at 10 µM came out at 2%. Besides, the cytotoxicity at 4 h, 100 µM in data set [3] was -107%. Also, in the data set on stress ulcer formation, the “WIS: ulcer formation inhibitory rate” value was 51%.

In the case of `CCN(CC)CCCSc1nnc(NC(=O)c2ccc(OC/C=C(\C)CCC=C(C)C)cc2)s1` [Example 11, 2-(4-geranyloxybenzoyl)amino-5-diethylaminopropylthio-1,3,4-thiadiazole], the inhibition at 10 µM in data set [1] was found to be 100%. In addition, the cytotoxicity at 4 h, 100 µM in data set [3] is 48%. Moreover, the “WIS: ulcer formation inhibitory rate” value with stress ulcer formation was found to be 65%.

As for `CC(C)=CCC/C(C)=C/COc1ccc(C(=O)Nc2nnc(SCCCN3CCCCC3)s2)cc1` [Example 13, 2-(4-geranyloxybenzoyl)amino-5-piperidinopropylthio-1,3,4-thiadiazole], the inhibition at 10 µM in data set [1] turned out to be 100%. In data set [3], the cytotoxicity at 4 h, 100 µM was 41%. In addition, the “WIS: ulcer formation inhibitory rate” value in the data set with stress ulcer formation was 51%.

With `CCCSc1nnc(NC(=O)c2ccc(OC/C=C(\C)CCC=C(C)C)cc2)s1` [Example 16, 2-(4-geranyloxybenzoyl)amino-5-propylthio-1,3,4-thiadiazole], in data set [3], the cytotoxicity at 4 h, 100 µM came to 14%. Besides, in the data set with stress ulcer formation, the “WIS: ulcer formation inhibitory rate” value is 53%.

Consider `CC(C)=CCC/C(C)=C/COc1ccc(C(=O)Nc2nnc(SCC(C)C)s2)cc1` [Example 17, 2-(4-geranyloxybenzoyl)amino-5-isobutylthio-1,3,4-thiadiazole], for which, in data set [3], the cytotoxicity at 4 h, 100 µM was -4%. Moreover, in the data set on stress ulcer formation, the “WIS: ulcer formation inhibitory rate” value turned out to be 46%.

Turning to `CC(C)=CCC/C(C)=C/COc1ccc(C(=O)Nc2nnc(SCc3ccccc3)s2)cc1` [Example 18, 2-(4-geranyloxybenzoyl)amino-5-benzylthio-1,3,4-thiadiazole], the cytotoxicity at 4 h, 100 µM in data set [3] came to 18%. In addition, in the data set with stress ulcer formation, the “WIS: ulcer formation inhibitory rate” value is given as 32%.
